Experimental data reported in patent publication US11754547B2, “Biorecognition elements for detection of fungi and bacteria in fuel systems” (priority 2020, dated 2023).

How the values were obtained:
Experiment in all cases: Western blot of phage-displayed peptide BRE binding to biotinylated target peptide
[1] = test system: Gor-Fasciclin (SEQ. ID No. 58), Gordonia-Fasciclin; conditions: phage clone with biotinylated target peptide, streptavidin bead pull-down; FIG. 5
Excerpt: (§1) Recombinant phage clones were selected using X-Gal/IPTG, which produced a blue color on phage infected E. coli colonies. After the amplification of multiple phage isolates carrying a single heptapeptide sequence (i.e., monoclonal phages), genomic DNA was isolated and sequenced to determine the aa sequences of the peptide BREs. Isolated monoclonal phages were sequenced after each round of selection. After four rounds of selection, the phage pool was enriched for target-binding phages with specific sequences. […] The binding of phages displaying specific peptide BREs to the target was assessed by Western blot analysis. Monoclonal target-specific bacteriophages were incubated with biotinylated target peptide epitope under conditions similar to those used in biopanning. The resulting phage-target complexes were recovered using streptavidin-coated magnetic beads, and the phage-target complexes were resolved via SDS-PAGE and detected by Western blot using antibodies against the M13 phage capsid and the biotin molecule attached to the specific target. Western blotting was performed by preparing a 200 μL solution with each of the phage clones at a concentration of 1×10^11 pfu/mL in 1×TBS, pH 7.5. Then, 10 μL of biotinylated target peptide of concentration 1 mg/mL was added to each phage solution and incubated at 25° C. for 1 hr. Phage-biotin target complexes were captured and pull-down with 25 μL of streptavidin-coated beads, and the captured complexes washed five times with 1×TBST. The pelleted complexes were re-suspended in 20 μL of 2× Laemmli Buffer, heated to 95° C. for 5 min, and resolved in a 14% SDS-PAGE gel. Proteins were blotted to a nitrocellulose membrane and blocked with TBST containing 5% BSA. To detect phages, a 1:2000 dilution of rabbit anti-M13 phage antibody (primary antibody) followed by a 1:5000 dilution of alkaline phosphatase (AP)-conjugated goat anti-rabbit antibody was used. For detection of biotinylated target, a 1:2000 dilution of AP-conjugated goat anti-biotin antibody was used. For colorimetric visualization, BCIP/NBT reagent was used. […]

[2] = test system: CHI-P1 (SEQ. ID No. 25), Chitinase; parameters: species or system fungi; conditions: phage clone with biotinylated target peptide, streptavidin bead pull-down; FIG. 4
Excerpt: as §1, with “hr.” for “hr. Phage-biotin target complexes were captured and pull-down with 25 μL of streptavidin-coated beads, and the captured complexes washed five times with 1×TBST. The pelleted complexes were re-suspended in 20 μL of 2× Laemmli Buffer, heated to 95° C. for 5 min, and resolved in a 14% SDS-PAGE gel. Proteins were blotted to a nitrocellulose membrane and blocked with TBST containing 5% BSA. To detect phages, a 1:2000 dilution of rabbit anti-M13 phage antibody (primary antibody) followed by a 1:5000 dilution of alkaline phosphatase (AP)-conjugated goat anti-rabbit antibody was used. For detection of biotinylated target, a 1:2000 dilution of AP-conjugated goat anti-biotin antibody was used. For colorimetric visualization, BCIP/NBT reagent was used.”

[3] = test system: ALK-P3 (SEQ. ID No. 1), P450 Alkane Hydroxylase; parameters: species or system fungi; conditions: phage clone with biotinylated target peptide, streptavidin bead pull-down; FIG. 4
ALK-P3 (SEQ. ID No. 1), P450 Alkane Hydroxylase, sequence (as listed by the source): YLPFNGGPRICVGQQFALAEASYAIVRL
Excerpt: as §1, with “hr.” for “hr. Phage-biotin target complexes were captured and pull-down with 25 μL of streptavidin-coated beads, and the captured complexes washed five times with 1×TBST. The pelleted complexes were re-suspended in 20 μL of 2× Laemmli Buffer, heated to 95° C. for 5 min, and resolved in a 14% SDS-PAGE gel. Proteins were blotted to a nitrocellulose membrane and blocked with TBST containing 5% BSA. To detect phages, a 1:2000 dilution of rabbit anti-M13 phage antibody (primary antibody) followed by a 1:5000 dilution of alkaline phosphatase (AP)-conjugated goat anti-rabbit antibody was used. For detection of biotinylated target, a 1:2000 dilution of AP-conjugated goat anti-biotin antibody was used. For colorimetric visualization, BCIP/NBT reagent was used.”

Gor-Fasciclin (SEQ. ID No. 58), Gordonia-Fasciclin, sequence (as listed by the source): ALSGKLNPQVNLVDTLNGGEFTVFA

Row | Substance | binding to Gor-Fasciclin (SEQ. ID No. 58) target, Western blot [1] | also measured
1 | TWTLARP (Artificial Sequence Obtained Through Biopanning) [SEQ. ID No. 59] | specific binding | 
2 | MPPHGDR (Artificial Sequence Obtained Through Biopanning) [SEQ. ID No. 26] |  | binding to CHI-P1 (SEQ. ID No. 25) target, Western blot [2]: specific binding
3 | YVPEWVS (Artificial Sequence Obtained Through Biopanning) [SEQ. ID No. 61] | specific binding | 
4 | WSLGYTG (Artificial Sequence Obtained Through Biopanning) [SEQ. ID No. 2] |  | binding to ALK-P3 (SEQ. ID No. 1) target, Western blot [3]: specific binding
5 | RSLGYTG (Artificial Sequence Obtained Through Biopanning) [SEQ. ID No. 60] | specific binding | 
